Source: ChEMBL document CHEMBL4325920, “Discovery of Clinical Candidate BMS-823778 as an Inhibitor of Human 11β-Hydroxysteroid Dehydrogenase Type 1 (11β-HSD-1)” (ACS Med Chem Lett, 2018)
The source made the active and inactive calls. The calls are words filed in the database; no cut-off is given here.

What was measured:
[1] = target: 11-beta-hydroxysteroid dehydrogenase 1 (Mus musculus, UniProt P50172); test: Inhibition of recombinant mouse 11beta-HSD1 expressed in HEK293 cell microsomes using [3H]cortisone as substrate after 4 hrs by homogeneous immuno-radiometric scintillation proximity assay
[2] = target: T1, Nuclear receptor subfamily 1 group I member 2 (Homo sapiens, UniProt O75469); test: Activation of PXR (unknown origin); type: ADME
T1 sequence (O75469 whole entry): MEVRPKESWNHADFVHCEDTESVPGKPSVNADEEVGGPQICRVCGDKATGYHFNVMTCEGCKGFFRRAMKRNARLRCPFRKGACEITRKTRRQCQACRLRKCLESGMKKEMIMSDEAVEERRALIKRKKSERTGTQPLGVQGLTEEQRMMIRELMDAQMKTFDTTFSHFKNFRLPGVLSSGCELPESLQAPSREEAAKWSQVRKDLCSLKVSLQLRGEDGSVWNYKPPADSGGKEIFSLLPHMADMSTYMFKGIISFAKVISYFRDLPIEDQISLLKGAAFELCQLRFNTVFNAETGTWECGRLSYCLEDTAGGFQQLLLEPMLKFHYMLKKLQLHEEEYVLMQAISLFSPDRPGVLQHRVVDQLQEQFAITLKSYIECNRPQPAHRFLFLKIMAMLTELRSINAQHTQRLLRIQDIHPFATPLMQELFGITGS

[3] = target: T2, 11-beta-hydroxysteroid dehydrogenase type 2 (Homo sapiens) (UniProt P80365); test: Inhibition of recombinant human 11beta-HSD2 expressed in cells up to 30 uM using […] as substrate by LC-MS analysis; type: cell-based
T2 sequence (whole entry): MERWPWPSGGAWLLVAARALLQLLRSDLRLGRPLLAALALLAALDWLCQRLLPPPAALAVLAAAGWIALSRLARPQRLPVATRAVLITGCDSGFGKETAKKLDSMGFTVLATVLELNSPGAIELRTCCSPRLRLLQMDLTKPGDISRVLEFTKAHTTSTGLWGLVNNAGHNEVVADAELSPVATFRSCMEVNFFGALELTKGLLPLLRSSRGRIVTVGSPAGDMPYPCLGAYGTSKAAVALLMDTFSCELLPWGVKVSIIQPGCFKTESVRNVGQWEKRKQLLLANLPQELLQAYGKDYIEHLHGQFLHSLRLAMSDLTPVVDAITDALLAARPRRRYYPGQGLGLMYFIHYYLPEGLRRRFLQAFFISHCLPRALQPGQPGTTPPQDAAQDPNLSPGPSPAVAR

[4] = target: T3, 11-beta-hydroxysteroid dehydrogenase type 2 (Mus musculus) (UniProt P51661); test: Inhibition of mouse 11beta-HSD2 up to 20 uM
T3 sequence (whole entry): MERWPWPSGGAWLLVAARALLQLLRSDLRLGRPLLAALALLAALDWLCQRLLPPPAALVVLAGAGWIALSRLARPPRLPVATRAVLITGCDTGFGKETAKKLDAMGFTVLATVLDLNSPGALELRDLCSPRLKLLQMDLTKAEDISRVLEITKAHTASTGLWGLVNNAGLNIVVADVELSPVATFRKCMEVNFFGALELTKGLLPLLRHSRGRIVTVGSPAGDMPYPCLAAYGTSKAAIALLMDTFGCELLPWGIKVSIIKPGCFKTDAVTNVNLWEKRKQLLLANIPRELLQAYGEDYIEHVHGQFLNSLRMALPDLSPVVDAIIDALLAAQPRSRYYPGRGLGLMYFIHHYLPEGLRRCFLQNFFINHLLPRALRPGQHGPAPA

[5] = target: T4, 11-beta-hydroxysteroid dehydrogenase type 2 (Rattus norvegicus) (UniProt P50233); test: Inhibition of rat 11beta-HSD2 up to 20 uM
T4 sequence (whole entry): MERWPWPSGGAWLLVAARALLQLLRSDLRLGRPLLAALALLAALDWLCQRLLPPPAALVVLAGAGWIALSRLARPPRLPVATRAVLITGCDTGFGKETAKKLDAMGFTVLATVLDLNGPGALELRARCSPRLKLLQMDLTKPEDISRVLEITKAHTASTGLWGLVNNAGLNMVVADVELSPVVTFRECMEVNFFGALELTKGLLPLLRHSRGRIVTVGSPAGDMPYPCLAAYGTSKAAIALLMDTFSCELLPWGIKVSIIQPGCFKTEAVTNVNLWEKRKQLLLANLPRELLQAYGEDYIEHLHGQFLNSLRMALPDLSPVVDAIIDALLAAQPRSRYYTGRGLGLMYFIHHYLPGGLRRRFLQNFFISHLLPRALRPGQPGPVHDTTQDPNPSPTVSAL

[6] = species on record: Macaca fascicularis; test: Inhibition of cynomolgus monkey 11beta-HSD2 up to 20 uM
[7] = Selectivity ratio of Ki for recombinant mouse 11beta-HSD1 expressed in HEK293 cell microsomes to Ki for recombinant cynomolgus monkey 11beta-HSD1 expressed in HEK293 cell microsomes

Sequence of 11-beta-hydroxysteroid dehydrogenase 1 (P50172 whole entry): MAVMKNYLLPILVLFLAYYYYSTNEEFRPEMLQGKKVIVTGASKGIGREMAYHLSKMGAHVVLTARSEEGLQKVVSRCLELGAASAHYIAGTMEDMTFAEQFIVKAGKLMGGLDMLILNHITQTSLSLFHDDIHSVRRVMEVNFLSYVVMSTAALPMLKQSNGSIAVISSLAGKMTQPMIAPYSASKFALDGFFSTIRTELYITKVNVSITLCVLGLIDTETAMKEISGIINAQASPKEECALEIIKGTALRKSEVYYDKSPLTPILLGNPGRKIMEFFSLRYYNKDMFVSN

CC(C)(O)CCc1cccn2c(C3(c4ccc(Cl)cc4)CC3)nnc12
IC50 [1]: > 10 µM | EC50 [2]: 3.6 µM

OCCCc1cccn2c(C3(c4ccc(Cl)cc4)CC3)nnc12
IC50 [1]: 5.7 µM | EC50 [2]: 25 µM

OCc1cccn2c(C3(c4ccc(Cl)cc4)CC3)nnc12
IC50 [1]: 3.8 µM | EC50 [2]: 25 µM

CC(C)(O)c1cccn2c(C3(c4ccc(Cl)cc4)CC3)nnc12
inhibition [3]: inactive | inhibition [4]: inactive | inhibition [5]: inactive | inhibition [6]: inactive | Ratio Ki [7]: 55

OC(c1cccn2c(C3(c4ccc(Cl)cc4)CC3)nnc12)C1CC1 (stereo not drawn)
IC50 [1]: 8.06 µM | EC50 [2]: 48 µM
